Measurements taken from US11752111B2, “Use of cannabidivarin in the treatment of autism spectrum disorder, associated disorders and schizophrenia” (GW Research Limited, priority 2016, dated 2023).
“Also recorded” adds a separate entry of the source. Read-outs that look alike come from different tables or passages of the source.

Columns and labels:
VPA-exposed rats = test: Short-term memory, novel object recognition test, prenatal VPA model; format: in vivo, rat
Method: Pregnant Sprague-Dawley rats (Charles River, Calco, Italy), received a single intraperitoneal injection of 500 mg/kg sodium valproate on the 12.5 day after conception, and control females were injected with physiological saline at the same time. Sodium valproate (Sigma Aldrich, Milan, IT) was dissolved in saline at a concentration of 250 mg/ml.
CBDV was dissolved in ethanol, cremophor and saline (1:1:18). Symptomatic treatment with CBDV at doses of 0.2, 2, 20, and 100 mg/kg/day i.p. was performed starting from PND 34 (early adolescence) till 56 (early adulthood), both in male and female offspring of dams injected with VPA 500 mg/kg (or vehicle) on day 12.5 after conception. […]
Short-term memory: The experimental apparatus used for the object recognition test was an open-field box (43×43×32 cm) made of Plexiglas, placed in a dimly illuminated room. The experiment was performed and analysed as previously described (Zamberletti et al, 2014). […]
Each animal was placed in the arena and allowed to explore two identical previously unseen objects for 5 minutes (familiarization phase). […] During the test phase the time spent exploring the familiar object (Ef) and the new object (En) was videotaped and recorded separately by two observers blind to the treatment groups and the discrimination index was calculated as follows: [(En−Ef)/(En+Ef)]×100.

Fmr1 KO mice [1] = test: Novel object recognition task in Fragile X model; format: in vivo, mouse
Method: Fmr1 KO mice and wild type mice were obtained and housed four per cage in a temperature of 21° C.±1° C. and humidity of 55%±10% controlled environment. Food and water were available ad libitum. All experiments were performed during the light phase of a 12 hour light/dark cycle (08:00 to 20:00). Animals were handled for one week before the start of experiments. All behavioural tests were performed by researchers blind to the different experimental groups.
On day one mice were habituated for 10 minutes to the empty V-maze in which the task was to be performed. On the second day the mice went back to the maze for 10 minutes which contained two identical objects at the end of each corridor in the V-maze.
The following day the mice were placed again in the same maze for a further 10 minutes but one of the familiar objects was replaced for a novel object. The total time spent exploring the novel and familiar object was recorded. A discrimination index was calculated as the difference between the time spent exploring the novel and familiar object divided by the total time exploring the two objects. A high discrimination index (0.3-0.5) is considered to reflect memory retention for the familiar object.
Adult mice (10-15 weeks old) were treated either acutely with one dose of CBDV on […] or were treated once daily with CBDV for 7 consecutive days. Mice were evaluated in the novel object recognition task after the first and sixth day of CBDV administration. Doses of CBDV used were 2, 10, 20, 100 and 200 mg/kg.

animal models of seizure = conditions: in vivo; cited from earlier work
Fmr1 KO mice [2] = test: Audiogenic seizure susceptibility, Fmr1 KO (FXS) mice; format: in vivo, mouse; conditions: for audiogenic seizures: FXS mice PND21
Method: This trait was evaluated in PND21 mice after acute administration of the compounds or its vehicle, 30 min before starting the procedure. To measure audiogenic seizure sensitivity mice were placed individually into a novel environment, a glass cylinder (40 cm high, 16 cm diameter) and allowed to explore for 1 min. Next, a bell (100 dB) was rung for 30 sec and seizure activity scored according to the following scale: no response, 0; wild running, 1; clonic seizure, 2; tonic seizure, 3; status epilepticus/respiratory arrest/death, 4.
On postnatal day 21 (PND21) WT and Fmr1 KO mice were injected with CBDV (2, 10, 20 or 100 mg/kg) or vehicle, 30 min before exposure to a bell ring (100 dB). Mice exposed to this noise for 30 sec ceased from their normal exploratory behaviour and reacted with gradually to wild-running, clonic seizure, tonic seizure or death. The maximum response was annotated for each mouse as detailed in Table 2 below. A score was calculated according to the severity of the symptoms as explained in the Methods section.

Ube3am-/p+ (AS) mice = test: Audiogenic seizure susceptibility in Angelman syndrome model; format: in vivo, mouse
Method: Heterozygous mice with maternal deficiency of Ube3A (Ube3am−/p+) and wild type (Ube3am+/p+) were purchased from The Jackson Laboratory (Jackson code: B6.129S7-Ube3a tm1Alb/J) and maintained in a C57BL/6 background.
For the audiogenic seizure tests CBDV was administered at 20, 200 and 400 mg/kg.
Seizure susceptibility: Audiogenic seizures were induced by vigorously scraping scissors across the metal grating of the cage lid which produces a 100 DB high frequency loud noise. This was done for 20 seconds. This test consists of 3 phases. In phase 1 all mice were tested for epilepsy. In phase 2 all mice were injected daily with either vehicle or a drug for 7 or 10 days. In phase 3 mice were tested for epilepsy (one hour after last injection).

MeCP2 KO mice = test: Survival in Rett syndrome model; format: in vivo, mouse
Method: CBDV was administered daily at the dose of 2, 20 and 200 mg/kg i.p. starting from PND 28 and the following signs were scored every other day: hindlimb clasping (indication of motor imbalance), tremor, gait (measure of coordination), breathing, mobility and general condition.
Starting from PND 28, mice received a daily intraperitoneal injection of CBDV (or vehicle) at the dose of 2, 20 and 200 mg/kg. Animals were then scored every other day to evaluate the effect of CBDV treatment on motor symptoms (hindlimb clasping, gait, mobility) as well as neurological signs and general conditions (breathing abnormalities, tremors and general condition) present in MeCP2 knockout (KO) mice.

[3] = FXS (Fmr1 KO) PND21, CBDV 2 mg/kg acute, n = 5
[4] = FXS (Fmr1 KO) PND21, CBDV 10 mg/kg acute, n = 5
[5] = FXS (Fmr1 KO) PND21, CBDV 20 mg/kg acute, n = 5
[6] = FXS (Fmr1 KO) PND21, CBDV 100 mg/kg acute, n = 5

C=C(C)[C@@H]1CCC(C)=C[C@H]1c1c(O)cc(CCC)cc1O [CBDV, Cannabidivarin]
short-term memory deficit, discrimination index (FIG. 2C) (VPA-exposed rats; 2, 20 and 100 mg/kg, male and female VPA rats): completely and significantly reversed | recognition memory per se (VPA-exposed rats; vehicle-treated (non VPA) rats): without affecting per se recognition memory | discrimination index (FIG. 3A) (Fmr1 KO mice [1]): no effect | increase of discrimination index over vehicle treated mice (FIG. 3A) (Fmr1 KO mice [1]; acute treatment, 2 mg/kg, knockout mice): not significant | discrimination index vs vehicle treated knockout mice (FIG. 3B) (Fmr1 KO mice [1]; chronic treatment once daily for 7 days, 20 and 100 mg/kg, knockout mice): statistically significant increase | efficacy in animal models of seizure (animal models of seizure): effective | maximum response: No response (number of mice) (Fmr1 KO mice [2]): 2 | maximum response: Clonic seizure (number of mice) (Fmr1 KO mice [2]; [3]): 0 | maximum response: Death (number of mice) (Fmr1 KO mice [2]; [3]): 0 | maximum response: Tonic seizure (number of mice) (Fmr1 KO mice [2]; [3]): 2 | maximum response: Wild running (number of mice) (Fmr1 KO mice [2]; [3]): 1 | maximum response: Clonic seizure (number of mice) (Fmr1 KO mice [2]; [4]): 0 | maximum response: Death (number of mice) (Fmr1 KO mice [2]; [4]): 0 | maximum response: No response (number of mice) (Fmr1 KO mice [2]; [4]): 0 | maximum response: Tonic seizure (number of mice) (Fmr1 KO mice [2]; [4]): 2 | maximum response: Wild running (number of mice) (Fmr1 KO mice [2]; [4]): 3 | maximum response: Clonic seizure (number of mice) (Fmr1 KO mice [2]; [5]): 0 | maximum response: Death (number of mice) (Fmr1 KO mice [2]; [5]): 0 | maximum response: No response (number of mice) (Fmr1 KO mice [2]; [5]): 2 | maximum response: Tonic seizure (number of mice) (Fmr1 KO mice [2]; [5]): 2 | maximum response: Wild running (number of mice) (Fmr1 KO mice [2]; [5]): 1 | maximum response: Clonic seizure (number of mice) (Fmr1 KO mice [2]; [6]): 0 | maximum response: Death (number of mice) (Fmr1 KO mice [2]; [6]): 0 | maximum response: No response (number of mice) (Fmr1 KO mice [2]; [6]): 5 | maximum response: Tonic seizure (number of mice) (Fmr1 KO mice [2]; [6]): 0 | maximum response: Wild running (number of mice) (Fmr1 KO mice [2]; [6]): 0 | audiogenic seizures (Fmr1 KO mice [2]; acute 100 mg/kg): remained seizure free; also recorded: completely eliminate the seizures | audiogenic seizures (Fmr1 KO mice [2]; acute lower doses (2, 10, 20 mg/kg)): experienced seizures of varying severity | seizure susceptibility, number of mice with seizures vs baseline (FIG. 15) (Ube3am-/p+ (AS) mice; 20 mg/kg or 200 mg/kg, 7 or 10 days treatment): no effect | number of mice with seizures (FIG. 15) (Ube3am-/p+ (AS) mice; 400 mg/kg): statistically significant decrease | survival rate (MeCP2 KO mice; CBDV 200 mg/kg, PND 67, vehicle 25%): 75% | survival measured at PND 67 (FIG. 5) (MeCP2 KO mice; all three doses (2, 20, 200 mg/kg)): increase survival
